Measured values reported in patent US7999119B2, “Compounds having CRTH2 antagonist activity” (Oxagen Limited, priority 2006, dated 2011).

tested on: PGD2 induced eosinophil shape change; experiment: Human whole blood eosinophil shape change assay; type: cell-based; settings: Homo sapiens, Eosinophil, 10 nm PGD2-induced eosinophil shape change, human whole blood; read-out: Whole Blood IC50
Protocol: Human Whole Blood Eosinophil Shape Change Assay
Compounds 1 to 3 were assayed for their effect on PGD2 induced eosinophil shape change and were compared with Comparator Compounds A to G.
Shape Change Assay in Whole Blood
Compounds (1 μl, 200× final concentration) were added directly to 200 μl whole blood, mixed well and incubated for 15 min, 37° C., 5% CO2. After this time, cell shape was fixed by addition of 300 μl Cytofix™ buffer (BD Biosciences), 15 min on ice. 10 ml RBC lysis buffer was added to the fixed cells, incubated 5 min, at room temperature and centrifuged, 300×g for 5 min. Supernatant (containing lysed red cells) was removed and the lysis step was repeated. Leukocytes were resuspended in 250 μl RPMI/10% FCS and shape change analysed by FACS. Eosinophils were gated out based on their autofluorescence and 2000 eosinophil events were counted per sample. Data were analysed in triplicate.

Row | Compound | IC50 [nM]
1 | Cc1c(Cc2ccc(S(=O)(=O)c3ccc(Cl)cc3)cc2)c2cc(F)ccc2n1CC(=O)O [Compound D, 2-{3-[4-(4-chlorophenylsulfonyl)benzyl]-5-fluoro-2-methyl-1H-indol-1-yl}acetic acid] | 494
2 | Cc1c(Cc2ccc(S(=O)(=O)c3ccc(F)cc3)cc2)c2cc(F)ccc2n1CC(=O)O [Compound E, 2-{5-Fluoro-3-[4-(4-fluorophenylsulfonyl)benzyl]-2-methyl-1H-indol-1-yl}acetic acid] | 71
3 | Cc1c(Cc2ccc(S(=O)(=O)c3ccccc3)cc2)c2cc(F)ccc2n1CC(=O)O [Compound C, 2-{5-Fluoro-2-methyl-3-[4-(phenylsulfonyl)benzyl]-1H-indol-1-yl}acetic acid] | 273

The next lines start with the values.

Row | IC50 [nM] | Compound
4 | 1500 | Cc1c(Cc2cccc(S(=O)(=O)c3ccccc3)c2)c2cc(F)ccc2n1CC(=O)O [Compound F, 2-{5-Fluoro-2-methyl-3-[3-(phenylsulfonyl)benzyl]-1H-indol-1-yl}acetic acid]
5 | 4660 | Cc1c(Cc2cccc(S(=O)(=O)c3ccc(Cl)cc3)c2)c2cc(F)ccc2n1CC(=O)O [Compound G, 2-{3-[3-(4-chlorophenylsulfonyl)benzyl]-5-fluoro-2-methyl-1H-indol-1-yl}acetic acid]
